Data published in patent publication US10765114B2, “4-amino-6-(pyridyl and 2-substitutedphenyl)-picolinates and 6-amino-2-(pyridyl and 2-substitutedphenyl)-pyrimidine-4-carboxylates and their use as herbicides” (Dow AgroSciences LLC, priority 2013, dated 2020).
Read-outs that look alike come from different tables or passages of the source.

How the values were obtained:
[1] = tested on: Key Broadleaf Weed and Crop Species; test: Post-Emergent Test II (Table 5); type: in vivo; conditions: post-emergence, 336 h; for pest or weed control at 54.5 g/ha: application rate 54.5 (kg ai/ha; footnote: g ai/ha); for pest or weed control at 109 g/ha: application rate 109 (kg ai/ha; footnote: g ai/ha)
Procedure, shortened: (§1)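 Post-emergence greenhouse spray, 1st-2nd true leaf stage; track sprayer, 187 L/ha; acetone/DMSO stock diluted in aqueous acetone/IPA/DMSO with Atplus 411F and Triton X-155; rates 1× to 1/16×; subirrigated; visual injury 0 (none) to 100% (complete kill) at 14 days.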

[2] = tested on: Key Grass and Sedge Weeds as well as Grass Crops; test: Post-Emergent Test II (Table 6); type: in vivo; conditions: post-emergence, 336 h, 14 days after application; for pest or weed control at 54.5 g/ha: 54.5 g ai/ha; for pest or weed control at 109 g/ha: 109 g ai/ha
Procedure, shortened: as §1

[3] = Abutilon theophrasti, ABUTH: velvetleaf (Abutilon theophrasti), read-out: Visual Growth Reduction (%) 14 Days After Application ABUTH
[4] = Amaranthus retroflexus, AMARE: redroot pigweed (Amaranthus retroflexus), read-out: Visual Growth Reduction (%) 14 Days After Application AMARE
[5] = Brassica napus, BRSSS: oilseed rape, canola (Brassica napus), read-out: Visual Growth Reduction (%) 14 Days After Application BRSSS
[6] = Chenopodium album, CHEAL: lambsquarters (Chenopodium album), read-out: Visual Growth Reduction (%) 14 Days After Application CHEAL
[7] = Euphorbia heterophylla, EPHHL: wild poinsettia (Euphorbia heterophylla), read-out: Visual Growth Reduction (%) 14 Days After Application EPHHL
[8] = Helianthus annuus, HELAN: sunflower (Helianthus annuus), read-out: Visual Growth Reduction (%) 14 Days After Application HELAN
[9] = Viola tricolor, VIOTR: wild pansy (Viola tricolor), read-out: Visual Growth Reduction (%) 14 Days After Application VIOTR
[10] = DIGSA: crabgrass (Digitaria sanguinalis), read-out: Visual Growth Reduction (%) 14 Days After Application DIGSA
[11] = ECHSS, read-out: Visual Growth Reduction (%) 14 Days After Application ECHSS
[12] = ORYSS (crop), read-out: Visual Growth Reduction (%) 14 Days After Application ORYSS
[13] = SETFA: giant foxtail (Setaria faberi), read-out: Visual Growth Reduction (%) 14 Days After Application SETFA
[14] = SORVU: grain sorghum (Sorghum vulgare), read-out: Visual Growth Reduction (%) 14 Days After Application SORVU
[15] = TRZSS (crop), read-out: Visual Growth Reduction (%) 14 Days After Application TRZSS
[16] = ZEAMX: maize, corn (Zea mays), read-out: Visual Growth Reduction (%) 14 Days After Application ZEAMX

Work on `COC(=O)c1nc(-c2ccc(Cl)c(F)c2SC)c(F)c(N)c1Cl` [Compound 18] yielded a pest or weed control at 54.5 g/ha [1, 3] of 60 to 74%, a pest or weed control at 109 g/ha [1, 3] of 60 to 74% and a pest or weed control at 54.5 g/ha [1, 4] of 75 to 84%. The pest or weed control at 109 g/ha [1, 4] was 95 to 100%, the pest or weed control at 54.5 g/ha [1, 5] was 0 to 29% and the pest or weed control at 109 g/ha [1, 5] was 0 to 29%. For the same compound, the pest or weed control at 54.5 g/ha [1, 6] was 85 to 94%, the pest or weed control at 109 g/ha [1, 6] was 85 to 94% and the pest or weed control at 54.5 g/ha [1, 7] was 0 to 29%. It also gave a pest or weed control at 109 g/ha [1, 7] of 0 to 29%, a pest or weed control at 54.5 g/ha [1, 8] of 75 to 84% and a pest or weed control at 109 g/ha [1, 8] of 75 to 84%. For the same compound, the pest or weed control at 54.5 g/ha [1, 9] was 0 to 29%, the pest or weed control at 109 g/ha [1, 9] was 0 to 29% and the pest or weed control at 54.5 g/ha ([2]; CYPSS, read-out: Visual Growth Reduction (%) 14 Days After Application CYPSS) was 95 to 100%. The pest or weed control at 54.5 g/ha [2, 10] was 0 to 29%, the pest or weed control at 109 g/ha [2, 10] was 0 to 29% and the pest or weed control at 54.5 g/ha [2, 11] was 0 to 29%. The pest or weed control at 109 g/ha [2, 11] was 0 to 29%, the pest or weed control at 54.5 g/ha [2, 12] was 0 to 29% and the pest or weed control at 109 g/ha [2, 12] was 0 to 29%. The pest or weed control at 54.5 g/ha [2, 13] was 0 to 29%, the pest or weed control at 109 g/ha [2, 13] was 0 to 29% and the pest or weed control at 54.5 g/ha [2, 14] was 0 to 29%. For the same compound, the pest or weed control at 109 g/ha [2, 14] was 0 to 29%, the pest or weed control at 54.5 g/ha [2, 15] was 0 to 29% and the pest or weed control at 109 g/ha [2, 15] was 0 to 29%. It also gave a pest or weed control at 54.5 g/ha [2, 16] of 0 to 29% and a pest or weed control at 109 g/ha [2, 16] of 0 to 29%.
